ChEMBL document CHEMBL1152743, “Design and synthesis of 1,2-annulated adamantane piperidines with anti-influenza virus activity” (Bioorg Med Chem, 2009)
Activity calls are given as the source filed them. The calls are words filed in the database; no cut-off is given here.

How the values were obtained:
[1] = Selectivity index, ratio of MCC for MDCK cells to EC50 for influenza A virus H3N2; assay type: toxicity, cell-based; conditions: dog
Influenza A virus [2] = test: microbe, parasite or virus in culture; conditions: H3N2, 72 h
Description: (§1) Antiviral activity against influenza A virus H3N2 assessed as inhibition of virus-induced cytopathic effect after 72 hrs by MTS assay

[3] = Cytotoxicity against MDCK cells assessed as changes in cell morphology after 72 hrs […]; assay type: cell-based, Canis lupus familiaris; conditions: dog
Influenza B virus = test: Antiviral activity against influenza B virus; assay type: functional, organism-based
Influenza A virus [4] = assay type: functional, organism-based; conditions: H3N2, 500 uM
Influenza A virus [5] = tested on: Influenza A virus
Description: as §1

Compound | selectivity ratio [1] | EC50 (Influenza A virus [2]) [nM] | MCC at 72 h [3] [µM] | Activity (Influenza B virus) | Activity (Influenza A virus [4]) | EC50 (Influenza A virus [5]) [nM]
CN1CC2C3CC4CC(C3)CC2(C4)C1 (stereo not given) | 35 | 2400 | 83 | inactive |  | 
C1CNC2C3CC4CC(C3)CC2(C1)C4 (stereo not given) | 106 | 4100 | 439 | inactive |  | 
C1CC23CC4CC(CC(C4)C2CN1)C3 (stereo not given) |  |  |  | inactive | inactive | 
C1CC2C3CC4CC(C3)CC2(CN1)C4 (stereo not given) | > 732 | 600 | 439 | inactive |  | 
NC(=O)c1ncn([C@@H]2O[C@H](CO)[C@@H](O)[C@H]2O)n1 [RIBAVIRIN] |  |  | 20 | inactive |  | 8700
CC(N)C12CC3CC(CC(C3)C1)C2 (stereo not given) [RIMANTADINE] |  | 360 | > 500 | inactive |  | 
CCN1CCC23CC4CC(CC(C4)C12)C3 (stereo not given) | 128 | 3400 | 439 | inactive |  | 
CN1CCC2C3CC4CC(C3)CC2(C4)C1 (stereo not given) |  |  |  | inactive | inactive | 
CN1CCC23CC4CC(CC(C4)C2C1)C3 (stereo not given) |  |  |  | inactive | inactive | 
CCN1CCC23CC4CC(CC(C4)C2C1)C3 (stereo not given) |  |  |  | inactive | inactive | 
C1C2CC3CC1CC1(CNCC31)C2 (stereo not given) | 200 | 500 | 94 | inactive |  | 
CN1CCCC23CC4CC(CC(C4)C12)C3 (stereo not given) | 19 | 4400 | 83 | inactive |  | 
C1CC23CC4CC(CC(C4)C2N1)C3 (stereo not given) | 217 | 2200 | 468 | inactive |  | 
CN1CCC23CC4CC(CC(C4)C12)C3 (stereo not given) | 11 | 7700 | 83 | inactive |  | 
NC12CC3CC(CC(C3)C1)C2 [AMANTADINE] | > 250 | 2000 | > 500 | inactive |  | 
